Where “and” joins values, the source holds several entries; their conditions need not be identical. Equal entries are not always repeated.
Experiment: an = ratio of the nth substance listed
Details: 100 kPa, Liquid, Buoyancy - hydrostatic balance, a2 = 1.3

[F][Al]([F])[F] [aluminum fluoride] + [F-].[K+]
Details	mass density
953.37 K	1875 kg/m3
953.87 K	1875 kg/m3
954.03 K	1875 kg/m3
954.2 K	1874 kg/m3
954.52 K	1874 kg/m3
954.85 K	1873 kg/m3
955.23 K	1873 kg/m3
955.66 K	1873 kg/m3
955.95 K	1873 kg/m3
956.45 K	1873 kg/m3
957 K	1872 kg/m3
957.09 K	1872 kg/m3
957.11 K	1872 kg/m3
957.15 K	1872 kg/m3
957.8 K	1871 kg/m3
958.17 K	1871 kg/m3
958.39 K	1870 kg/m3
958.54 K	1870 kg/m3
958.92 K	1870 kg/m3
959.36 K	1870 kg/m3
959.42 K	1870 kg/m3
959.67 K	1870 kg/m3
960.14 K	1869 kg/m3
960.36 K	1869 kg/m3
961.06 K	1868 kg/m3
961.27 K	1868 kg/m3
961.32 K	1868 kg/m3
961.88 K	1868 kg/m3
961.97 K	1868 kg/m3
962.58 K	1867 kg/m3
962.79 K	1866 kg/m3
962.82 K	1867 kg/m3
963.09 K	1867 kg/m3
963.44 K	1866 kg/m3
963.53 K	1866 kg/m3
964.23 K	1865 kg/m3
964.32 K	1865 kg/m3
964.85 K	1865 kg/m3
965.05 K	1865 kg/m3
965.38 K	1865 kg/m3
965.94 K	1864 kg/m3
966 K	1864 kg/m3
966.18 K	1864 kg/m3
966.56 K	1864 kg/m3
966.7 K	1863 kg/m3
967.24 K	1863 kg/m3
967.73 K	1862 kg/m3
967.75 K	1862 kg/m3
968.06 K	1862 kg/m3
968.94 K	1862 kg/m3
968.96 K	1862 kg/m3
969.15 K	1861 kg/m3
969.33 K	1861 kg/m3
969.99 K	1861 kg/m3
970.3 K	1861 kg/m3
970.44 K	1860 kg/m3
970.89 K	1860 kg/m3
970.98 K	1859 kg/m3
971.14 K	1860 kg/m3
971.87 K	1859 kg/m3
972.13 K	1859 kg/m3
972.25 K	1859 kg/m3
972.6 K	1859 kg/m3
972.98 K	1858 kg/m3
973.21 K	1858 kg/m3
973.66 K	1858 kg/m3
973.77 K	1858 kg/m3
973.95 K	1857 kg/m3
974.37 K	1857 kg/m3
974.77 K	1857 kg/m3
975.15 K	1856 kg/m3
975.67 K	1856 kg/m3
975.77 K	1856 kg/m3
975.97 K	1856 kg/m3
976.61 K	1855 kg/m3
976.86 K	1855 kg/m3
976.9 K	1855 kg/m3
977.25 K	1854 kg/m3
977.4 K	1854 kg/m3
977.66 K	1852 kg/m3
978.13 K	1852 kg/m3
978.34 K	1852 kg/m3
978.99 K	1852 kg/m3
979.14 K	1851 kg/m3
979.65 K	1850 kg/m3
979.83 K	1851 kg/m3
980.46 K	1850 kg/m3
980.58 K	1850 kg/m3
980.92 K	1850 kg/m3
980.95 K	1850 kg/m3
981.3 K	1849 kg/m3
981.38 K	1849 kg/m3
982.18 K	1849 kg/m3
982.5 K	1849 kg/m3
982.75 K	1848 kg/m3
983.17 K	1848 kg/m3
983.33 K	1847 kg/m3
983.99 K	1847 kg/m3
984.08 K	1847 kg/m3
984.17 K	1847 kg/m3
984.63 K	1846 kg/m3
985 K	1846 kg/m3
985.5 K	1846 kg/m3
985.61 K	1846 kg/m3
986.09 K	1845 kg/m3
986.53 K	1845 kg/m3
986.96 K	1845 kg/m3
987.09 K	1845 kg/m3
987.31 K	1844 kg/m3
987.8 K	1844 kg/m3
988.08 K	1844 kg/m3
988.26 K	1844 kg/m3
988.64 K	1843 kg/m3
988.78 K	1844 kg/m3
989.33 K	1843 kg/m3
989.41 K	1843 kg/m3
990.26 K	1842 kg/m3
990.32 K	1842 kg/m3
991.02 K	1842 kg/m3
991.03 K	1841 kg/m3
991.17 K	1842 kg/m3
991.49 K	1841 kg/m3
992.13 K	1841 kg/m3
992.28 K	1840 kg/m3
992.47 K	1841 kg/m3
992.66 K	1842 kg/m3
992.84 K	1842 kg/m3
993.1 K	1842 kg/m3
993.15 K	1840 kg/m3
993.49 K	1839 kg/m3
993.5 K	1840 kg/m3
993.57 K	1841 kg/m3
993.62 K	1840 kg/m3
993.79 K	1839 kg/m3
993.81 K	1841 kg/m3
993.83 K	1841 kg/m3
994.35 K	1838 kg/m3
994.37 K	1839 kg/m3
994.52 K	1838 kg/m3
994.62 K	1840 kg/m3
995.21 K	1838 kg/m3
995.25 K	1840 kg/m3
995.47 K	1840 kg/m3
995.64 K	1840 kg/m3
995.66 K	1838 kg/m3
996.05 K	1838 kg/m3
996.18 K	1839 kg/m3
996.21 K	1838 kg/m3
996.6 K	1839 kg/m3
996.7 K	1837 kg/m3
996.81 K	1836 kg/m3
996.88 K	1839 kg/m3
997.13 K	1836 kg/m3
997.4 K	1836 kg/m3
997.41 K	1838 kg/m3
997.63 K	1838 kg/m3
997.84 K	1837 kg/m3
997.92 K	1836 kg/m3
997.99 K	1836 kg/m3
998.24 K	1835 kg/m3
998.66 K	1837 kg/m3
998.67 K	1837 kg/m3
998.83 K	1835 kg/m3
999.09 K	1836 kg/m3
999.14 K	1836 kg/m3
999.24 K	1836 kg/m3
999.27 K	1835 kg/m3
999.3 K	1837 kg/m3
999.38 K	1837 kg/m3
999.39 K	1835 kg/m3
999.51 K	1836 kg/m3
999.7 K	1834 kg/m3
1000.2 K	1834 kg/m3
1000.5 K	1835 kg/m3
1000.8 K	1833 kg/m3
1000.9 K	1834 kg/m3
1001.1 K	1835 kg/m3
1001.3 K	1834 kg/m3
1001.4 K	1833 kg/m3
1001.5 K	1834 kg/m3
1001.6 K	1833 kg/m3
1001.7 K	1834 kg/m3
1002.2 K	1832 kg/m3 and 1833 kg/m3
1002.4 K	1833 kg/m3
1002.7 K	1833 kg/m3
1002.9 K	1832 kg/m3 and 1832 kg/m3
1003.4 K	1832 kg/m3 and 1832 kg/m3
1003.5 K	1831 kg/m3
1003.7 K	1832 kg/m3
1004.2 K	1831 kg/m3
1004.3 K	1831 kg/m3 and 1830 kg/m3
1004.8 K	1831 kg/m3 and 1830 kg/m3
1005 K	1831 kg/m3
1005.1 K	1831 kg/m3 and 1830 kg/m3
1005.6 K	1830 kg/m3
1005.7 K	1830 kg/m3
1006 K	1829 kg/m3
1006.3 K	1830 kg/m3
1006.4 K	1830 kg/m3
1006.5 K	1830 kg/m3 and 1829 kg/m3
1006.9 K	1829 kg/m3 and 1827 kg/m3
1007 K	1829 kg/m3
1007.1 K	1828 kg/m3
1007.3 K	1828 kg/m3
1007.4 K	1828 kg/m3 and 1829 kg/m3
1007.7 K	1827 kg/m3
1007.9 K	1827 kg/m3
1008 K	1827 kg/m3
1008.2 K	1827 kg/m3
1008.3 K	1828 kg/m3
1008.5 K	1827 kg/m3
1008.8 K	1827 kg/m3
1009 K	1827 kg/m3
1009.2 K	1827 kg/m3
1009.4 K	1827 kg/m3
1009.6 K	1826 kg/m3
1009.8 K	1826 kg/m3
1010 K	1825 kg/m3
1010.1 K	1825 kg/m3
1010.3 K	1825 kg/m3
1010.7 K	1825 kg/m3
1010.9 K	1825 kg/m3
1011 K	1825 kg/m3
1011.1 K	1825 kg/m3
1011.2 K	1825 kg/m3
1011.3 K	1824 kg/m3
1011.6 K	1823 kg/m3
1011.7 K	1824 kg/m3
1012 K	1824 kg/m3
1012.2 K	1824 kg/m3
1012.4 K	1824 kg/m3
1012.5 K	1824 kg/m3
1012.6 K	1823 kg/m3
1012.9 K	1824 kg/m3
1013.1 K	1822 kg/m3
1013.4 K	1823 kg/m3

Reference: the NIST ThermoML archive (doi:10.1021/acs.jced.8b00157)
